We go through five compounds from patent US20180194762A1 (Pharmacyclics LLC, priority 2017, published 2018).

Holding throughout (format): biochemical
Assay [1] concerns the target T1, TEC (Homo sapiens, UniProt P42680).
T1 sequence (P42680 1-631): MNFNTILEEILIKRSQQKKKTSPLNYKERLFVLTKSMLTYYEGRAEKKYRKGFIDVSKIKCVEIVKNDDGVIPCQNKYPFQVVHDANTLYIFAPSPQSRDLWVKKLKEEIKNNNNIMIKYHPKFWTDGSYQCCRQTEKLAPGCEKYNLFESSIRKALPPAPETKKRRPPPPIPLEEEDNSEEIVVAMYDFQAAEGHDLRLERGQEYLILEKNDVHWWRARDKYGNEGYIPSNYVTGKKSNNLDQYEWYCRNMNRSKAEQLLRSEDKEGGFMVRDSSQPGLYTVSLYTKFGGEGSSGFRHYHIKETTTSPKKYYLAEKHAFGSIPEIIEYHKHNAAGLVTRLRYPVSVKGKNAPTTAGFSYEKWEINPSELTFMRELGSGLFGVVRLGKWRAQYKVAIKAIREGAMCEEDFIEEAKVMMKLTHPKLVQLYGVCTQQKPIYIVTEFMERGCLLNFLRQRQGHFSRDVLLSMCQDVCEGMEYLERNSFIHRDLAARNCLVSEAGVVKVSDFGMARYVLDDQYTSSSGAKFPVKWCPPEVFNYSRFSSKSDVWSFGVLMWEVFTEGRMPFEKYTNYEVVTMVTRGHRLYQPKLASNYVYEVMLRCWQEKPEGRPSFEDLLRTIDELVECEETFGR
The assay is described as follows: Inhibition of a panel of kinases (in vitro HotSpot kinase assay, 33P-ATP, 1 μM ATP). Particulars: for IC50: HotSpot kinase assay, 1 μM ATP. The gist of the method: (§1)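 Radiometric read-out: 33P transfer to a suitable substrate by each purified enzyme, ATP at 1 μM. Values are degree of inhibition.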

The target of assay [2] is T2, Btk (Homo sapiens, UniProt Q06187).
T2 construct: purified from insect cells as a full-length construct containing a N-terminal 6X-His tag; His6 (N); made in house; host or cells: insect cells (Method C)
The assay is described as follows: Btk in vitro inhibitory activity (one of Method A TR-FRET, Method B electrophoretic mobility shift, Method C radiometric filter binding). The gist of the method: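 Three alternative formats were used. A radiometric filter-binding read used 8 nM full-length His-BTK with 0.2 mg/mL poly(Glu-Tyr) 4:1 (C); microfluidic separation of 1 μM FAM-peptide by 1 nM BTK gave IC50 from 12-point curves (B); TR-FRET at Km ATP, 0.5 nM Btk, gave Ki(app)-derived IC50 (A).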
(In general: Mobility shift assays separate free from complexed probe on a gel.)

Assay [3] has as its target T3, panel of kinases (Homo sapiens, UniProt P51813).
T3 sequence (P51813 1-675): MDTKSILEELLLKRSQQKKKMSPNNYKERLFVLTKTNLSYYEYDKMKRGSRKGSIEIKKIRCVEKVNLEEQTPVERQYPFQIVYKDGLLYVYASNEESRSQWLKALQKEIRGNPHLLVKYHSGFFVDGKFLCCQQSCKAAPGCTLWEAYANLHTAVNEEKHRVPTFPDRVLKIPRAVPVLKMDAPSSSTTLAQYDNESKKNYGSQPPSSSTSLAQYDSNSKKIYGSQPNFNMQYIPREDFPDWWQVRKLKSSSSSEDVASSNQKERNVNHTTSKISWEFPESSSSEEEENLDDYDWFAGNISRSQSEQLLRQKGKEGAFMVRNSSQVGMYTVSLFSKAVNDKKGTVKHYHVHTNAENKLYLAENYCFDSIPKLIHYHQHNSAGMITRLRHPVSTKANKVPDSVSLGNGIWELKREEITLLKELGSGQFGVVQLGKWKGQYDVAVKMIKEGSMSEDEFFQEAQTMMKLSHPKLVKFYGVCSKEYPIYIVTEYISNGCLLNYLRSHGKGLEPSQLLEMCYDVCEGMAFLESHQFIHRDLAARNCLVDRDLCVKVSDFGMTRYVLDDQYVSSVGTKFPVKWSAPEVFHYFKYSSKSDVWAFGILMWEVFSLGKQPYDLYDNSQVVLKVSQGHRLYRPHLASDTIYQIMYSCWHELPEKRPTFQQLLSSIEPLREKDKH
The assay is described as follows: Inhibition of a panel of kinases (in vitro HotSpot kinase assay, 33P-ATP, 1 μM ATP), other kinases. Particulars: BMX wild-type, read-out: BMX-WT IC50. A digest of the protocol:
as §1

Where [4] appears, read: wild-type Btk, read-out: Btk-WT IC50.

Each structure is given as a SMILES string. Like-named read-outs stand apart in the source and are kept apart here. Some results are limits rather than exact numbers.

T2 sequence (Q06187 whole entry): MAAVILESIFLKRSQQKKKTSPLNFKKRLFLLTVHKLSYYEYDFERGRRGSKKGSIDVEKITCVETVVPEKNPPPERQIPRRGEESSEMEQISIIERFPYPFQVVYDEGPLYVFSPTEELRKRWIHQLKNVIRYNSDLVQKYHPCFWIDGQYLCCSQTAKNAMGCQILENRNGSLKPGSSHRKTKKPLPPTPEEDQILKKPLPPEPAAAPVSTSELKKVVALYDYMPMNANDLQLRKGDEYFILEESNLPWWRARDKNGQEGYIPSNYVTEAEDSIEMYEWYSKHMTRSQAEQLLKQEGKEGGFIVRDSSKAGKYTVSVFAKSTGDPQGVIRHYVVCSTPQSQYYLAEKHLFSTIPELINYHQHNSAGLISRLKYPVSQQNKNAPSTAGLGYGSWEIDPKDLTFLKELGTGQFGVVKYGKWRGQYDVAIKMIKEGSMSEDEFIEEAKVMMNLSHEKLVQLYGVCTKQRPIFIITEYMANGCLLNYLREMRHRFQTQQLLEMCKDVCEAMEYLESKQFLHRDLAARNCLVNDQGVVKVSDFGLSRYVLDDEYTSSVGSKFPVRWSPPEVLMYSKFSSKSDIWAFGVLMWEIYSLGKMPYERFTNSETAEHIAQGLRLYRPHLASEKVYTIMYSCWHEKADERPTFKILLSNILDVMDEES

In general, IC50 refers to the concentration at which inhibition is half-maximal. Consider `CC(=O)N[C@@H]1CCN(c2n[nH]c3nccc(-c4ccc(CNC(=O)c5cc(C(C)(C)C#N)on5)c(F)c4)c23)C1` [Example 403, N-[(4-{3-[(3R)-3-acetamidopyrrolidin-1-yl]-1H-pyrazolo[3,4-b]pyridin-4-yl}-2-fluorophenyl)methyl]-5-(2-cyanopropan-2-yl)-1,2-oxazole-3-carboxamide], for which the IC50 in assay [1] amounted to 1400 nM; in assay [2] (setting [4]), 17.3 nM; in assay [3], 1810 nM.
For `C=CC(=O)N[C@@H]1CCN(c2n[nH]c3nccc(-c4ccc(CNC(=O)c5noc(C(C)C)n5)c(F)c4)c23)C1` [Example 367, N-{[2-fluoro-4-(3-{(3R)-3-[(prop-2-enoyl)amino]pyrrolidin-1-yl}-1H-pyrazolo[3,4-b]pyridin-4-yl)phenyl]methyl}-5-(propan-2-yl)-1,2,4-oxadiazole-3-carboxamide], the IC50 turned out to be 47.4 nM in assay [1], 0.058 nM in assay [2] (setting [4]) and 26.5 nM in assay [3].
Regarding `COC(=O)N1C[C@H](Nc2n[nH]c3nccc(-c4ccc(CNC(=O)c5nc(C(C)(C)C)no5)c(F)c4)c23)CC[C@@H]1C` [Example 410, methyl (2S,5R)-5-{[4-(4-{[(3-tert-butyl-1,2,4-oxadiazole-5-carbonyl)amino]methyl}-3-fluorophenyl)-1H-pyrazolo[3,4-b]pyridin-3-yl]amino}-2-methylpiperidine-1-carboxylate], the values for the IC50 in assay [1], in assay [2] (setting [4]) and in assay [3] were 542 nM, 1.08 nM and 2020 nM, respectively.
For `C[C@H]1CC[C@@H](Nc2n[nH]c3nccc(-c4ccc(CNC(=O)c5ccc(C(C)(C)O)cc5F)c(F)c4)c23)CN1C(=O)N(C)C` [Example 414, (2S,5R)-5-{[4-(3-fluoro-4-{[2-fluoro-4-(2-hydroxypropan-2-yl)benzamido]methyl}phenyl)-1H-pyrazolo[3,4-b]pyridin-3-yl]amino}-N,N,2-trimethylpiperidine-1-carboxamide] the same measures were 1040 nM, 59.2 nM and 3250 nM.
For `C=CC(=O)N1CC[C@@H](Nc2n[nH]c3nccc(-c4ccc(CNC(=O)c5cnn(C(C)(C)C)c5)c(F)c4)c23)C1` [Example 80, 1-tert-butyl-N-{[2-fluoro-4-(3-{[(3R)-1-(prop-2-enoyl)pyrrolidin-3-yl]amino}-1H-pyrazolo[3,4-b]pyridin-4-yl)phenyl]methyl}-1H-pyrazole-4-carboxamide], the IC50 in assay [1] is 57 nM; in assay [2] (method is one of A, B or C, not stated which, read-out: IC50 values against Btk), below 10 nM; in assay [2] (setting [4]), 0.129 nM; in assay [3], 76 nM. In addition, in assay [1] (ratio of TEC IC50 to Btk IC50 (selectivity)), the TEC/Btk was found to be 440.
